Values of other authors as cited in patent US20220054659A1, “PSMA-TARGETED PAMAM DENDRIMERS FOR SPECIFIC DELIVERY OF IMAGING, CONTRAST AND THERAPEUTIC AGENTS” (The Johns Hopkins University, priority 2018, published 2022).

Target: PSMA (Homo sapiens, UniProt Q04609)
Sequence (Q04609 whole entry, species assumed): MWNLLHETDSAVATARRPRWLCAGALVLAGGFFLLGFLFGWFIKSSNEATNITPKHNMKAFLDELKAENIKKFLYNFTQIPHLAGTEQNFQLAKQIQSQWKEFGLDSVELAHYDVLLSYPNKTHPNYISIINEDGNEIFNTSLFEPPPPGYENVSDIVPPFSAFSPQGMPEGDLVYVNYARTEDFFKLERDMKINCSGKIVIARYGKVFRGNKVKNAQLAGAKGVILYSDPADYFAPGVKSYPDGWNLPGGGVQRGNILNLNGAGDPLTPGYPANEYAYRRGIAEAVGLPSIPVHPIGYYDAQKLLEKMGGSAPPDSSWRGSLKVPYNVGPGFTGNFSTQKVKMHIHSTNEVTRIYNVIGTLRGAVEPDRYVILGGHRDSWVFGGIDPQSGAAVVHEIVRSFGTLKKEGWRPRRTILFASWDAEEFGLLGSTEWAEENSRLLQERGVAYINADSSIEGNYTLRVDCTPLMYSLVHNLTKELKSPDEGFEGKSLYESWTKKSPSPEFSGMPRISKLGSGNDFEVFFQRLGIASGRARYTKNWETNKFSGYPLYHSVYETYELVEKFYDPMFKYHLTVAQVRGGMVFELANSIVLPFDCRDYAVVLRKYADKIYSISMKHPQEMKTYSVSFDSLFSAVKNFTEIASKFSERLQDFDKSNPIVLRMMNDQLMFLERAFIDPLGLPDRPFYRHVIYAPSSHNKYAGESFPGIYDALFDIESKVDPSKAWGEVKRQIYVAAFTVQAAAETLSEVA

- affinity to PSMA: picomolar
Structure (SMILES): NCCCC[C@H](NC(=O)N[C@@H](CCC(=O)O)C(=O)O)C(=O)O [Lys-Glu-urea]
